Reference: PubChem BioAssay (NCI)
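96-well plates; 48 h exposure; 5 concentrations. Endpoints by linear interpolation between flanking doses. Not reached: highest tested concentration assigned. TGI: concentration producing complete growth inhibition.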

Legend:
Test in all cases: NCI anticancer screen, dose series, 48 h
[1] = system: DMS 273 small cell lung
[2] = system: LXFL 529 NSCLC
[3] = system: HL-60(TB) leukemia
[4] = system: KM20L2 colon
[5] = system: SNB-78 CNS
[6] = system: DMS 114 small cell lung
[7] = system: HOP-18 NSCLC
[8] = system: UACC-62 melanoma
[9] = system: SK-MEL-28 melanoma
[10] = system: DLD-1 colon
[11] = system: SF-295 CNS
[12] = system: SK-OV-3 ovarian
[13] = system: KM12 colon
[14] = system: M19-MEL melanoma
[15] = system: LOX IMVI melanoma
[16] = system: IGROV1 ovarian
[17] = system: XF 498 CNS
[18] = system: MDA-MB-435

Measured: TGI

COC(=O)C(C(=O)C(=O)Nc1ccc(C)cc1C)c1nc2ccc([N+](=O)[O-])cc2[nH]c1=O (centres undefined)
not listed: [18]
> 100 µM: all other assays above

COc1ccc2c(c1)Cc1c-2[nH]c2cc3c(cc2c1=O)OCO3
35 µM: [4]
58.2 µM: [7]
22.8 µM: [8]
34.2 µM: [15]
59.5 µM: [16]
51.7 µM: [11]
17.9 µM: [6]
24.7 µM: [1]
53.8 µM: [9]
41.7 µM: [10]
29.2 µM: [3]
95.8 µM: [12]
> 100 µM: [2] | [5]
38.3 µM: [13] | [17]
34.3 µM: [14]

C/C(CC(=O)Nc1ccc(NC(=O)/C(C)=N/NS(=O)(=O)c2ccc(C)cc2)cc1)=N\NS(=O)(=O)c1ccc(C)cc1
not listed: [1] | [7] | [17] | [18]
> 100 µM: all other assays above

Cc1ccc(C(=O)NC(C)C)cc1N=NN(C)C
not listed: [3] | [6] | [7] | [12] | [17] | [18]
> 100 µM: all other assays above

Nc1nc(SCc2ccccc2[N+](=O)[O-])c2[nH]cnc2n1
> 68.4 µM: [16]
> 86.1 µM: [3]
not listed: [6] | [7] | [17]
> 100 µM: all other assays above

C=CC[C@@]1(C#N)C[C@H](C[C@]2(C#N)C[C@H](CCl)OC(C)(C)O2)OC(C)(C)O1
not listed: [2] | [5] | [18]
> 100 µM: all other assays above

N=C(N)Cn1cnc2ccccc21
not listed: [1] | [10] | [17] | [18]
> 100 µM: all other assays above

COC(=O)NN=C1C(C)(C)C(=NNC(=O)OC)C1(C)C
> 50.9 µM: [15]
> 56.7 µM: [6]
> 63.3 µM: [14]
not listed: [18]
> 100 µM: all other assays above

CCOC(=O)CC(=Nc1cc(C)on1)N(CC)CC
not listed: [3] | [7] | [11] | [15] | [18]
> 100 µM: all other assays above

[N-]=[N+]=NC(c1cn(C2CC(O)C(CO)O2)c(=O)[nH]c1=O)C(I)I (centres undefined)
not listed: [17] | [18]
> 100 µM: all other assays above

CC[S+](C)c1ccc(-c2c3nc(c(-c4ccc([S+](C)CC)cc4)c4ccc([nH]4)c(-c4ccc([S+](C)CC)cc4)c4nc(c(-c5ccc([S+](C)CC)cc5)c5ccc2[nH]5)C=C4)C=C3)cc1 (centres undefined)
23.3 µM: [15]
49.9 µM: [3]
95.5 µM: [12]
8.31 µM: [17]
54.9 µM: [8]
not listed: [6] | [7] | [10] | [16] | [18]
> 100 µM: all other assays above

Oc1cccc2nc3cc(CN4CCOCC4)c(CN4CCOCC4)cc3nc12
66.5 µM: [14]
76.8 µM: [8]
not listed: [6] | [18]
> 100 µM: all other assays above
